How the values were obtained:
CYP3A4 [1] = molecular target: T1, CYP3A4 (Homo sapiens, UniProt P08684); experiment: Inhibition of CYP3A4 in human liver microsomes assessed as residual activity at 5 uM using midazolam as substrate preincubated for 30 mins followed by substrate addition measured after 20 mins in presence of NADPH by LC-MS/MS analysis relative to control; format: ADME; conditions: probe midazolam, read-out: Activity
CYP3A4 [2] = molecular target: T1, CYP3A4; experiment: Inhibition of CYP3A4 in human liver microsomes assessed as residual activity at 5 uM using midazolam as substrate after 20 mins in presence of NADPH by LC-MS/MS analysis relative to control; format: ADME; conditions: probe midazolam, read-out: Activity
[3] = Intrinsic clearance in CD-1 mouse liver microsomes assessed per mg protein at 0.2 uM by LC-MS/MS analysis; format: ADME, microsome; conditions: read-out: CLH
Gamma-secretase = experiment: Modulatory activity against gamma-secretase in human SK-N-BE(2) cells assessed as reduction in amyloid beta 42 production after 6 hrs by sandwich ELISA; format: cell-based
[4] = Brain to plasma partition coefficient, Kp in ddY mouse at 30 mg/kg, ip after 1 hr by LC-MS/MS analysis; format: ADME, organism-based
[5] = Drug uptake in ddY mouse plasma at 30 mg/kg, ip after 1 hr by LC-MS/MS analysis; format: ADME, organism-based
[6] = Drug uptake in ddY mouse brain at 30 mg/kg, ip after 1 hr by LC-MS/MS analysis; format: ADME, organism-based; conditions: in vivo
[7] = […], Kp in ddY mouse brain at 30 mg/kg, ip after 3 hrs by LC-MS/MS analysis; format: ADME, organism-based; conditions: BLD = below limit of detection
[8] = Drug uptake in ddY mouse plasma at 30 mg/kg, ip after 3 hrs by LC-MS/MS analysis; format: ADME, organism-based
[9] = Brain to plasma partition coefficient, Kp in ddY mouse at 30 mg/kg, po after 3 hrs by LC-MS/MS analysis; format: ADME, organism-based
[10] = Drug uptake in ddY mouse plasma at 30 mg/kg, po after 3 hrs by LC-MS/MS analysis; format: ADME, organism-based
[11] = Drug uptake in ddY mouse plasma at 30 mg/kg, po after 1 hr by LC-MS/MS analysis; format: ADME, organism-based
[12] = Brain to plasma partition coefficient, Kp in ddY mouse at 30 mg/kg, po after 1 hr by LC-MS/MS analysis; format: ADME, organism-based
[13] = Drug uptake in ddY mouse brain at 30 mg/kg, po after 1 hr by LC-MS/MS analysis; format: ADME, organism-based; conditions: in vivo
[14] = Drug uptake in ddY mouse brain at 30 mg/kg, po after 3 hrs by LC-MS/MS analysis; format: ADME, organism-based; conditions: in vivo

T1 sequence (P08684 whole entry): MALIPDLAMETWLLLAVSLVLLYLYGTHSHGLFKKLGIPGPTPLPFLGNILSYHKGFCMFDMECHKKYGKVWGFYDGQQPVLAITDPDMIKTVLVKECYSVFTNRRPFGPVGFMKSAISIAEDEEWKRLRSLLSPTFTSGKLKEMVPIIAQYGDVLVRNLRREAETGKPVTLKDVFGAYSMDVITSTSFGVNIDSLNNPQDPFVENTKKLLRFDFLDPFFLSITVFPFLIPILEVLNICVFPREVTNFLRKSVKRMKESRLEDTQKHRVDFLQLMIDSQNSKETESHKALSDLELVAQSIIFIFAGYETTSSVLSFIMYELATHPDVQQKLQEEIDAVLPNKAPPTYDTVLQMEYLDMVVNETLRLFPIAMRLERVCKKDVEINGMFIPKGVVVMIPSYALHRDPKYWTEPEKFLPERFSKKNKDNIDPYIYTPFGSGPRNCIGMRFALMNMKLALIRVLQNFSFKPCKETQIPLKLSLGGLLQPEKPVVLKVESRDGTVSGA

Row | SMILES | microsomal CLint at 0.2 µM [3] [µL/min/mg] | IC50 (Gamma-secretase) [µM] | also measured
1 | COc1cc(/C=C2\CCCN([C@@H](C)c3ccc(F)cc3)C2=O)ccc1-n1cnc(C)c1 |  |  | activity at 20 min, 5 µM (CYP3A4 [1]): 29%; activity at 20 min, 5 µM (CYP3A4 [2]): 40%
2 | Cc1nc2c(OCc3ccccc3)cccn2c1CN(C)CCN(C)C |  | > 50 | 
3 | CCNC(=O)c1ccc(-c2c(C)nc3c(OCc4ccccc4C)cccn23)cc1 |  | 2.3 | 
4 | CCOC(=O)c1ccc(-c2c(C)nc3c(OCc4ccccc4C)cccn23)cc1 |  | 1.8 | 
5 | CCN1Cc2cc(-c3c(C)nc4c(OCc5ccccc5C)cccn34)ccc2C1=O.Cl | 611 | 0.39 | activity at 20 min, 5 µM (CYP3A4 [1]): 87%; Kp at 3 h [9]: 0.72; concentration at 3 h [10]: 960 nM; concentration at 1 h [11]: 2500 nM; Kp at 1 h [12]: 0.72; Drug uptake [13]: 1.9 nmol/g; activity at 20 min, 5 µM (CYP3A4 [2]): 85%; Drug uptake [14]: 0.69 nmol/g
6 | CCN(C)C(=O)c1ccc(-c2c(C)nc3c(OCc4ccccc4C)cccn23)cc1 |  | > 10 | 

Further lines, with some results ahead:

Row | microsomal CLint at 0.2 µM [3] [µL/min/mg] | IC50 (Gamma-secretase) [µM] | SMILES | also measured
7 | > 1000 | 8.7 | CCCCN1CCC(c2c(C)nc3c(OCc4ccccc4C)cccn23)CC1 | 
8 |  | 9.8 | Cc1ccccc1COc1cccn2c(C3CCN(C)CC3)c(C)nc12 | 
9 |  | 5.8 | Cc1nc2c(OCc3ccccc3)cccn2c1C1CCN(C2CCCCC2)CC1 | 
10 | > 1000 | 0.69 | CCCC(=O)N1CCC(c2c(C)nc3c(OCc4ccccc4C)cccn23)CC1.Cl | Kp at 1 h [4]: 1; concentration at 1 h [5]: 700 nM; Drug uptake [6]: 0.71 nmol/g; Kp [7]: Bld; concentration at 3 h [8]: 9.4 nM
11 | 628 | > 50 | CCCCc1ccc(-c2c(C)nc3c(OCc4ccccc4C)cccn23)cc1 | 
12 |  | 1.3 | CCOC(=O)N1CCC(c2c(C)nc3c(OCc4ccccc4C)cccn23)CC1 | 
13 |  | 7.1 | Cc1ccccc1COc1cccn2c(-c3ccncc3)c(C)nc12 | 
